# Results published in patent US10745384B2, “Indazole derivatives as αv integrin antagonists” (BRISTOL-MYERS SQUIBB COMPANY, priority 2016, dated 2020).
# Where a name gives a salt, the structure may show the parent alone.
# Tests used:
# human αVβ6 = target: T1, human αVβ6 (Homo sapiens, UniProt P06756+P18564); assay: human αVβ6 HTRF binding assay; details: recombinant human αVβ6 integrin, FITC-conjugated fibronectin
# T1 construct: purchased R & D systems 3817-AV
# In short: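 HTRF binding in 20 mM Tris pH 7.4 with 1 mM MgCl2, 1 mM MnCl2, 0.01% Tween 20 and 0.01% BSA. For αVβ6, biotinylated integrin (1.25 nM) and FITC-fibronectin (5 nM) were incubated 1 h at RT, then streptavidin-terbium (0.625 nM) was added overnight in the dark. An SPA-based fibronectin binding format was an alternative.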
# human αVβ1 = human αVβ1 (Homo sapiens, UniProt P05556+P06756); assay: human αVβ1 HTRF binding assay
# Description: (§1) All binding assays used the HTRF (homogeneous time resolved fluorescence) technology from Cisbio International, therefore all assays are described as HTRF binding assays. The assay results for the Examples are listed above together with the characterization data. The HTRF binding assays are established for the following integrins: human αVβ6, human αVβ1, human αVβ3, human αVβ5, and human αVβ8. All assays used the following assay buffer: 20 mM Tris, pH 7.4, 1 mM MgCl2, 1 mM MnCl2, 0.01% Tween 20, and 0.01% BSA. Alternatively, a SPA-based assay was used for evaluation of receptor binding.
# (§2) The following describes the components and a representative procedure for the human αVβ6 HTRF binding assay: Recombinant human αVβ6 Integrin (R & D systems, 3817-AV) was biotinylated. Biotinylated human αVβ6 Integrin was added to assay vessel at a final concentration of 1.25 nM. FITC-conjugated fibronectin (Cytoskeleton, FNR02) was then added at the final concentration of 5 nM. The mixture was centrifuged at 600 rpm for three minutes using Thermo Fisher Heraeus Multifuge X3 centrifuge and then incubated at room temperature for an hour. Streptavidin Terbium (Cisbio international 610STLB) was then added at the final concentration of 0.625 nM. The resulting mixture was centrifuged at 600 rpm for three minutes using Thermo Fisher Heraeus Multifuge X3 centrifuge and then incubated at room temperature overnight in dark before reading HTRF signals.
# The SPA-based assay was carried out according to the protocol and procedures similar to the ones described in the following reference with appropriate modifications to agents and ligands which are readily understood by one skilled in the art: Pachter J A, Zhang R, Mayer-Ezell R., “Scintillation proximity assay to measure binding of soluble fibronectin to antibody-captured αVβ1 integrin” Anal Biochem. 1995 Sep. 1; 230(1):101-7.
# human αVβ3 = human αVβ3 (Homo sapiens, UniProt P05106+P06756); assay: human αVβ3 HTRF binding assay
# Description: as §1
# as §2, with “signals. […]” for “signals.”
# human αVβ5 = human αVβ5 (Homo sapiens, UniProt P06756+P18084); assay: human αVβ5 HTRF binding assay
# Description: as §1
# as §2, with “signals. […]” for “signals.”
# human αVβ8 = human αVβ8 (Homo sapiens, UniProt P06756+P26012); assay: human αVβ8 HTRF binding assay
# Description: as §1
# as §2, with “signals. […]” for “signals.”
# human αVβ1, sequence (P06756 31-992 limits assumed): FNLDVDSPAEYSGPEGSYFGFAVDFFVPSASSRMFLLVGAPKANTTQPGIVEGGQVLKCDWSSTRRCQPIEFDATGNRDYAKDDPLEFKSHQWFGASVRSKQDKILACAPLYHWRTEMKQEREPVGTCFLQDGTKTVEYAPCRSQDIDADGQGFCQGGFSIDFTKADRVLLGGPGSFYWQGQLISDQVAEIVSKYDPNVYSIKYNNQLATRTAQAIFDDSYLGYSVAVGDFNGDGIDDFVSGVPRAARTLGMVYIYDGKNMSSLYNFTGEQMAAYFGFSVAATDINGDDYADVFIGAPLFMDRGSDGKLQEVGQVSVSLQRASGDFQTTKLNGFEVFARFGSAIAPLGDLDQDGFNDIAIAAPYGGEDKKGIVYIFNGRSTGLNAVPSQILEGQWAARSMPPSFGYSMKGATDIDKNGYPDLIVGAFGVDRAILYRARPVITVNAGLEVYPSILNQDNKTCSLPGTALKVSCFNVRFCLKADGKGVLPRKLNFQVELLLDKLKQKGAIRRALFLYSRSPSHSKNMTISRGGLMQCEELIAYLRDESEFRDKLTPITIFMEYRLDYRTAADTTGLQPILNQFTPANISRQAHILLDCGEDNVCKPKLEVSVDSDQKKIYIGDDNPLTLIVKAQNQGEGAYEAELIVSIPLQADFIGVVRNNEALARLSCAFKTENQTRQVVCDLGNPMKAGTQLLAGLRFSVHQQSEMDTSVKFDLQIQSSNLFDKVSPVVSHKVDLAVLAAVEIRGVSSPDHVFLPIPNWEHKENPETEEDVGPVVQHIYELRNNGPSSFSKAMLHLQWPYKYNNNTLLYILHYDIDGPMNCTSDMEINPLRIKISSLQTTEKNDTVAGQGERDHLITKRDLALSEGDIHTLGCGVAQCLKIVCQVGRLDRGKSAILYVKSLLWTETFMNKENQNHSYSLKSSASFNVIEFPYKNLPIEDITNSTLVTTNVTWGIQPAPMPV
# human αVβ1, sequence (P05556 21-728 limits assumed): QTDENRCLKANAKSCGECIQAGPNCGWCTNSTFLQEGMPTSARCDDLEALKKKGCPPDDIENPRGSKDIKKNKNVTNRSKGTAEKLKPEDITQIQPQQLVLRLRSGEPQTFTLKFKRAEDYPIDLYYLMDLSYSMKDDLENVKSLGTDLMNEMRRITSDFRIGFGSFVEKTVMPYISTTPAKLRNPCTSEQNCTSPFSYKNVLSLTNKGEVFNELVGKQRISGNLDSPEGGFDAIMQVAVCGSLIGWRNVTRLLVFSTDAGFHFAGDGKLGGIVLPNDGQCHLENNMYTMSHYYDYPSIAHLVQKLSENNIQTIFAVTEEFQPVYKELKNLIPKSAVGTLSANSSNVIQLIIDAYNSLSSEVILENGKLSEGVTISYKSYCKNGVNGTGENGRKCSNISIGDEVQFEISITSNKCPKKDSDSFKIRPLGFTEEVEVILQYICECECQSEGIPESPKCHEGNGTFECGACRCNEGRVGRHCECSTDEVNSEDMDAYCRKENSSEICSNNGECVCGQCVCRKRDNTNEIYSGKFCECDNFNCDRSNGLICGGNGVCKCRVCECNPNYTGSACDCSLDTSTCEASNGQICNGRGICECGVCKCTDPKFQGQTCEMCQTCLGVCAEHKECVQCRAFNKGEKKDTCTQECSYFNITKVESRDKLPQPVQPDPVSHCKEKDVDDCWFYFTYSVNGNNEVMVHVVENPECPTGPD
# human αVβ8, sequence (P06756 31-992 limits assumed): as the sequence (P06756 31-992 limits assumed) above
# human αVβ8, sequence (P26012 43-684 limits assumed): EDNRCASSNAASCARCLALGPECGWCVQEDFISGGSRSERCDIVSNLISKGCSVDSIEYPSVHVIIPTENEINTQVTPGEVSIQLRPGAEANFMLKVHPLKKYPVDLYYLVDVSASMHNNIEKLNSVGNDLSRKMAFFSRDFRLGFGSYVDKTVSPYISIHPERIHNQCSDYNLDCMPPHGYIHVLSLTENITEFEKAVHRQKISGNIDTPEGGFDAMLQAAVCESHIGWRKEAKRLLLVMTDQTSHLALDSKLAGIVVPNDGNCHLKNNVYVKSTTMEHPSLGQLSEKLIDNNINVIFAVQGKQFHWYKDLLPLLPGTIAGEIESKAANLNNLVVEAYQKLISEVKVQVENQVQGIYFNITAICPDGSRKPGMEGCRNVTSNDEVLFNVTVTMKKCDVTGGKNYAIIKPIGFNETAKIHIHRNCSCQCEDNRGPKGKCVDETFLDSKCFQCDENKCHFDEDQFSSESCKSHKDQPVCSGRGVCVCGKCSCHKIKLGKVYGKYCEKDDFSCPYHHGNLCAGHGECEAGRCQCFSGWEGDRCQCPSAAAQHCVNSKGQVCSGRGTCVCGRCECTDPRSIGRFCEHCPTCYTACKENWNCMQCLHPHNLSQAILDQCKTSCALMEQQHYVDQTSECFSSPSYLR
# T1 sequence (P06756 31-992 limits assumed): as the sequence (P06756 31-992 limits assumed) above
# T1 sequence (P18564 22-707 limits assumed): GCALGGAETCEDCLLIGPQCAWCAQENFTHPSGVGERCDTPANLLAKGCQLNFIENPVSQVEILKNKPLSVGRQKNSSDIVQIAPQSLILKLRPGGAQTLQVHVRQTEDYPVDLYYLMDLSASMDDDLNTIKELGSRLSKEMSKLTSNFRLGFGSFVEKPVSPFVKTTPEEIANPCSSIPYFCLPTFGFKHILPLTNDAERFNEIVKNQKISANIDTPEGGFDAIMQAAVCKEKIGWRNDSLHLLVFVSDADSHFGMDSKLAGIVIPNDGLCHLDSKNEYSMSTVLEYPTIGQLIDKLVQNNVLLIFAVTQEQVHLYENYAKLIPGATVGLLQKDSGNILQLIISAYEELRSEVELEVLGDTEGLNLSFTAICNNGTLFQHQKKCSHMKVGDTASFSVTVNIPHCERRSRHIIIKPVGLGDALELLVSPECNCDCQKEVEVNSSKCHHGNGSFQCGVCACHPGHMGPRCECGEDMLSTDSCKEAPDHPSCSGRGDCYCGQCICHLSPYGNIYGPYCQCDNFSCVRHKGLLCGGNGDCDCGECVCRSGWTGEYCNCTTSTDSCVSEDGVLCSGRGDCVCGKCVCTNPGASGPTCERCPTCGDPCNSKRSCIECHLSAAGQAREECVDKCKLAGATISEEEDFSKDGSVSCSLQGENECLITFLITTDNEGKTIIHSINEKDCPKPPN
# human αVβ5, sequence (P06756 31-992 limits assumed): as the sequence (P06756 31-992 limits assumed) above
# human αVβ5, sequence (P18084 24-719 limits assumed): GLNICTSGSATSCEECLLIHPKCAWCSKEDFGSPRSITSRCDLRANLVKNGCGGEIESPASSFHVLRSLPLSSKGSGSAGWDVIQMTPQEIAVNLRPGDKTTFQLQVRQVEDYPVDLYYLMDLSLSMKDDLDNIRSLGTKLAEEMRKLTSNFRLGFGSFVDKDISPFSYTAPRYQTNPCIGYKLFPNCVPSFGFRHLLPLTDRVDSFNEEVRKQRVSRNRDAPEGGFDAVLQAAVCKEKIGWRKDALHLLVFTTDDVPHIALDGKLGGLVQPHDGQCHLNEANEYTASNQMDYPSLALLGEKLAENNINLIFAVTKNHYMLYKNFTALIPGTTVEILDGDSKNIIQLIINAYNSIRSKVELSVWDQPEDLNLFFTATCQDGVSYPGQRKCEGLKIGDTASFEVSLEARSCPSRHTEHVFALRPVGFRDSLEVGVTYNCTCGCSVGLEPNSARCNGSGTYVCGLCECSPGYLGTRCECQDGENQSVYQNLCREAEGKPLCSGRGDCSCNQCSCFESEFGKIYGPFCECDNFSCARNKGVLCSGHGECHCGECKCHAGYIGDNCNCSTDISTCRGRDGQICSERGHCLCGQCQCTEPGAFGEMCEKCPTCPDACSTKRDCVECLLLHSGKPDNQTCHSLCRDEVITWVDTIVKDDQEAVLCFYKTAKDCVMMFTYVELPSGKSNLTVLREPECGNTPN
# human αVβ3, sequence (P06756 31-992 limits assumed): as the sequence (P06756 31-992 limits assumed) above
# human αVβ3, sequence (P05106 27-718 limits assumed): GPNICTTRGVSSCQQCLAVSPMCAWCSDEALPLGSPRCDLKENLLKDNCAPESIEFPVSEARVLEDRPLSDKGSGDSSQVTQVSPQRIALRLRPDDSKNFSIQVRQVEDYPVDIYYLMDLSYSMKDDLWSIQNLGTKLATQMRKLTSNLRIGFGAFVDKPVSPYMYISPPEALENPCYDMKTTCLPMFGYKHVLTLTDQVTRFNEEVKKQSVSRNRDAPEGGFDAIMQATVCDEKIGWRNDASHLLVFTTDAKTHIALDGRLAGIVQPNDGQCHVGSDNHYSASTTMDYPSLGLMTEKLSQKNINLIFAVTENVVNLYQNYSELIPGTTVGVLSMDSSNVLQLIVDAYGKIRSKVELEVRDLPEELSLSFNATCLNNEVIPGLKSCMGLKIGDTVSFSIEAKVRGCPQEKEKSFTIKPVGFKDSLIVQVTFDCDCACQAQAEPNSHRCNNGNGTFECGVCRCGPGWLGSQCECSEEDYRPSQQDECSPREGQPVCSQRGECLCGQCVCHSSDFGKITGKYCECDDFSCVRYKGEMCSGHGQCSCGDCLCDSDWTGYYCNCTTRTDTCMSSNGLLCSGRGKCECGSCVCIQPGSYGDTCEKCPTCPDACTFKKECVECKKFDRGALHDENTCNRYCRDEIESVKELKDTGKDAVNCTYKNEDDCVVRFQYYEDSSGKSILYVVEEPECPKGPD
Compound,IC50 (human αVβ6),IC50 (human αVβ1),IC50 (human αVβ3),IC50 (human αVβ5),IC50 (human αVβ8)
"O=C(O)C[C@@H](c1cnc2ccccc2c1)n1cc2ccc(CCC3CCc4cccnc4N3)cc2n1 (stereo partly drawn) [Example 83, (3S)-3-(Quinolin-3-yl)-3-(6-(2-(1,2,3,4-tetrahydro-1,8-naphthyridin-2-yl)ethyl)-2H-indazol-2-yl)propanoic acid]",4.7 nM,360 nM,4.1 nM,2.2 nM,5000 nM
"O=C(O)C[C@@H](c1cnc2ccccc2c1)n1cc2ccc(CCCc3ccc4c(n3)NCCC4)cc2n1 [Example 87, (S)-3-(Quinolin-3-yl)-3-(6-(3-(5,6,7,8-tetrahydro-1,8-naphthyridin-2-yl)propyl)-2H-indazol-2-yl)propanoic acid]",1.3 nM,10000 nM,2.3 nM,3.2 nM,3300 nM
"COc1ncc(C(CC(=O)O)n2ncc3cc(OCCc4ccc5c(n4)NCCC5)ccc32)cn1 (centres unmarked) [Example 92, 3-(2-Methoxypyrimidin-5-yl)-3-(5-(2-(5,6,7,8-tetrahydro-1,8-naphthyridin-2-yl)ethoxy)-1H-indazol-1-yl)propanoic acid, TFA]",31 nM,210 nM,2.4 nM,0.39 nM,5000 nM
"O=C(O)CC(c1cnc2[nH]ncc2c1)n1ncc2cc(OCCc3ccc4c(n3)NCCC4)ccc21 (centres unmarked) [Example 106, 3-(1H-Pyrazolo[3,4-b]pyridin-5-yl)-3-(5-(2-(5,6,7,8-tetrahydro-1,8-naphthyridin-2-yl)ethoxy)-1H-indazol-1-yl)propanoic acid, 2 TFA]",23 nM,78 nM,1.3 nM,2.6 nM,3000 nM
"COc1ccc([C@H](CC(=O)O)n2cc3ccc(CCC4CCc5cccnc5N4)cc3n2)cn1 (stereo partly drawn) [Example 72, (3S)-3-(6-Methoxypyridin-3-yl)-3-(6-(2-(1,2,3,4-tetrahydro-1,8-naphthyridin-2-yl)ethyl)-2H-indazol-2-yl)propanoic acid]",8.2 nM,740 nM,4.4 nM,1.5 nM,3200 nM
"O=C(O)CC(c1cnc2ccccc2c1)n1ncc2cc(OCCc3ccc4c(n3)NCCC4)ccc21 (centres unmarked) [Example 48, 3-(Quinolin-3-yl)-3-(5-(2-(5,6,7,8-tetrahydro-1,8-naphthyridin-2-yl)ethoxy)-1H-indazol-1-yl)propanoic acid, TFA]",5.5 nM,270 nM,3.8 nM,0.54 nM,4400 nM
"O=C(O)CC(c1cncc(-c2cnco2)c1)n1ncc2cc(OCCc3ccc4c(n3)NCCC4)ccc21 (centres unmarked) [Example 121, 3-(5-(Oxazol-5-yl)pyridin-3-yl)-3-(5-(2-(5,6,7,8-tetrahydro-1,8-naphthyridin-2-yl)ethoxy)-1H-indazol-1-yl)propanoic acid]",8.8 nM,71 nM,3.1 nM,0.46 nM,2600 nM
"O=C(O)CC(c1cnc2ccccc2n1)n1ncc2cc(OCCc3ccc4c(n3)NCCC4)ccc21 (racemic) [Example 15, (±)-3-(Quinoxalin-2-yl)-3-(5-(2-(5,6,7,8-tetrahydro-1,8-naphthyridin-2-yl)ethoxy)-1H-indazol-1-yl)propanoic acid]",6 nM,270 nM,2.7 nM,0.31 nM,1500 nM
"O=C(O)CC(c1cncc(C2OCCO2)c1)n1ncc2cc(OCCc3ccc4c(n3)NCCC4)ccc21 (centres unmarked) [Example 104, 3-(5-(1,3-Dioxolan-2-yl)pyridin-3-yl)-3(5-(2-(5,6,7,8-tetrahydro-1,8-naphthyridin-2-yl)ethoxy)-1H-indazol-1yl)propanoic acid]",12 nM,30 nM,2.61 nM,0.28 nM,1800 nM
"Cn1cc2cc(C(CC(=O)O)n3ncc4cc(OCCc5ccc6c(n5)NCCC6)ccc43)cnc2n1 (centres unmarked) [Example 120, 3-(2-Methyl-2H-pyrazolo[3,4-b]pyridin-5-yl)-3-(5-(2-(5,6,7,8-tetrahydro-1,8-naphthyridin-2-yl)ethoxy)-1H-indazol-1-yl)propanoic acid, 2 TFA]",16 nM,200 nM,1.5 nM,0.2 nM,7500 nM
"Cn1ncc2cc(C(CC(=O)O)n3ncc4cc(OCCc5ccc6c(n5)NCCC6)ccc43)cnc21 (centres unmarked) [Example 117, 3-(1-Methyl-1H-pyrazolo[3,4-b]pyridin5-yl)-3-(5-(2-(5,6,7,8-tetrahydro-1,8-naphthyridin-2-yl)ethoxy)-1H-indazol-1-yl)propanoic acid, 2 TFA]",19 nM,63 nM,1.6 nM,0.46 nM,2200 nM
"COc1ccc([C@H](CC(=O)O)n2ncc3cc(OCCc4ccc5c(n4)NCCC5)ccc32)cn1 [Example 41, (S)-3-(6-Methoxypyridin-3-yl)-3-(5-(2-(5,6,7,8-tetrahydro-1,8-naphthyridin-2-yl)ethoxy)-1H-indazol-1-yl)propanoic acid]",6.2 nM,83 nM,2.3 nM,0.22 nM,510 nM
"O=C(O)C[C@@H](c1cnc2ccccc2n1)n1ncc2cc(OCCc3ccc4c(n3)NCCC4)ccc21 [Example 17, (S)-3-(quinoxalin-2-yl)-3-(5-(2-(5,6,7,8-tetrahydro-1,8-naphthyridin-2-yl)ethoxy)-1H-indazol-1-yl)propanoic acid]",4.2 nM,190 nM,2.1 nM,0.25 nM,1900 nM
